“Also recorded” adds a separate entry of the source.
Assays:
β1-adrenergic receptors = molecular target: T1, β1-adrenergic receptors (Rattus norvegicus, UniProt P18090); assay: Radioligand binding assay for β1-adrenergic receptors ([3H]-CGP-12177); details: rat cortex tissue
T1 construct: from tissue; host or cells: rat cortex
Protocol: Radioligand binding assay was performed on tissue rat cortex. […] In order to measure the unspecific binding 1 μM of propranolol was applied. Microplate was covered with a sealing tape, mixed and incubated for 60 minutes at 37 °C. The incubation was terminated by rapid filtration through GF/B filter mate. Ten rapid washes with 200 µL 50 mM Tris buffer (4 °C, pH 7.6) were completed using 96-well FilterMate harvester (PerkinElmer, Boston, MA, USA). The filter mates were dried at 37 °C in forced air fan incubator and then solid scintillator MeltiLex was melted on filter mates at 90 °C for 4 min. […] Data were fitted to a one-site curve-fitting equation with Prism 6 (GraphPad Software, San Diego, CA, USA) and Ki values were estimated from the Cheng−Prusoff equation [51].

potassium hERG channel = molecular target: T2, potassium hERG channel (Homo sapiens, UniProt Q12809); assay: Radioligand binding assay for K+ channel hERG ([3H]-dofetilide, HEK-293 cells)
T2 construct: host or cells: HEK-293
T2 sequence (Q12809 whole entry): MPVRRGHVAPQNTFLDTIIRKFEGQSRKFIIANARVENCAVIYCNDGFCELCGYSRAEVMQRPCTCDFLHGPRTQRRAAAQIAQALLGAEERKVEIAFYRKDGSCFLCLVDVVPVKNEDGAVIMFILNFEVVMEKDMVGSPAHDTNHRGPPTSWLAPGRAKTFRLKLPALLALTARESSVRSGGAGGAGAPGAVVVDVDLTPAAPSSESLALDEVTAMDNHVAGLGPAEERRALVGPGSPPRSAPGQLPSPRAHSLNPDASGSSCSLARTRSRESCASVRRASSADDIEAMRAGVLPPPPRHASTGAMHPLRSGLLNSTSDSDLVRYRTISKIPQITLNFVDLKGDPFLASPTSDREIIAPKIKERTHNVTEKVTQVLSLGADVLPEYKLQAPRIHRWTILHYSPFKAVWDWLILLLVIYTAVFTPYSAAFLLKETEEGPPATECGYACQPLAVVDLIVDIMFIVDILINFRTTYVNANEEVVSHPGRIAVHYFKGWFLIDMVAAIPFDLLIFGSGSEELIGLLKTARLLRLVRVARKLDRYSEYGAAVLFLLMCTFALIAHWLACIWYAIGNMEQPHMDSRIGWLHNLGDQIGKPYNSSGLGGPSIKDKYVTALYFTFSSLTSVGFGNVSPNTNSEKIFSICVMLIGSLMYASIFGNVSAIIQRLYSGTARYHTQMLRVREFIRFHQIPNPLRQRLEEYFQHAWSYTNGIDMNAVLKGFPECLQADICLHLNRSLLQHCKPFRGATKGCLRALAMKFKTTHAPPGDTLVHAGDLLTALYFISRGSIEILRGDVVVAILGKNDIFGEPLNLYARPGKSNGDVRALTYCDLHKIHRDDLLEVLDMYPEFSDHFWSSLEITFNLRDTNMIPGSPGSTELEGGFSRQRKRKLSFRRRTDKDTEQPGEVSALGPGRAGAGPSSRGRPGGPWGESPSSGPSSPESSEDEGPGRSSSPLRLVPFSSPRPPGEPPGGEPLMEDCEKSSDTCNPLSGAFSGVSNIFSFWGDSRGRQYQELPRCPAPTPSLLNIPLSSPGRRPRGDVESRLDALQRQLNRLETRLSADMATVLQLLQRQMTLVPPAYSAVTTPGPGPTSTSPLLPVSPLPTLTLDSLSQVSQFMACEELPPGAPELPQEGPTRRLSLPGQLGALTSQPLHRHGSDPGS
Protocol: The radioligand binding studies for K^+ and Ca^2+ channels were performed commercially by Eurofins Cerep (Celle l’Evescault, France) using testing procedures described elsewhere [68, 69].

[1] = molecular target: Ca2+ channel (L, verapamil site); assay: Radioligand binding assay for Ca2+ channel ([3H]-D888); design: species or system rat
Protocol: The radioligand binding studies for K^+ and Ca^2+ channels were performed commercially by Eurofins Cerep (Celle l’Evescault, France) using testing procedures described elsewhere. […]

normal ECG in rats = assay: Effect on normal electrocardiogram in rats; type: in vivo, rat; design: PQ / QRS / QTc / QT / Rate (heart rate): unit not given here; details: 5 mg/kg iv; for QTc: Bazzett's formula
Protocol: To eliminate the influence of the tested derivative on normal electrocardiogram (ECG), the experiment was performed. ECG tests were carried out with Aspel ASCARD apparatus (standard II lead, with the tape speed 50 mm/s and voltage calibration 1 Mv = 1 cm). The ECG was recorded prior and 5, 10, 15 min after iv administration of tested compound. The influence on PQ, QT, QTc interval, QRS complex and heart rate (RR) was defined. The Bazzett’s formula: QTc = QT/√RR was used to calculate QTc.

isolated rat heart = assay: Effect on normal ECG of isolated rat heart (Langendorff)
Protocol: Hearts form Wistar rats were isolated and immersed in Chenoweth-Koelle solution (120 mM NaCl; 5 mM KCl; 2.2 mM MgCl2; […]; 2.4 mM CaCl2; 10 mM glucose). Hearts were perfused according to the Langendorff model under a constant pressure of 70 cm H2O (6.87 kPa) with a solution at 37 °C, pH 7.4, constantly oxygenated (O2/CO2, 19:1) using the MyoHEART Langendorff System-900MH (Danish Myo Technology, Hinnerup, Denmark), which simultaneously monitored the ECG. After 20-min stabilization period, the tested compound was administered directly to the nutrient fluid every 15 min at increasing concentrations of […]. The influence on PQ, QTc interval, QRS complex and heart rate (RR) was assessed. The Bazzett’s formula: QTc = QT/√RR was used to calculate QTc.

[2] = system: adrenaline-induced arrhythmia in rats; assay: Prophylactic antiarrhythmic activity in adrenaline-induced arrhythmia; type: in vivo, rat; details: for Blocks (%) / Bradycardia (%) / Extrasystoles (%) / Mortality (%): adrenaline 20 μg/kg iv, % occurrence
[3] = system: calcium chloride-induced arrhythmia in rats; assay: Prophylactic antiarrhythmic activity in calcium chloride-induced arrhythmia; type: in vivo, rat
[4] = system: aconitine-induced arrhythmia in rats; assay: Prophylactic antiarrhythmic activity in aconitine-induced arrhythmia; type: in vivo, rat
[5] = system: post-reperfusion arrhythmia of isolated rat heart; assay: Antiarrhythmic activity in the post-reperfusion model in isolated rat heart
Protocol: Hearts form Wistar rats were isolated and immersed in Chenoweth–Koelle solution (120 mM NaCl; 5 mM KCl; 2.2 mM MgCl2; […]; 2.4 mM CaCl2; 10 mM glucose). Hearts were perfused according to the Langendorff model under a constant pressure of 70 cm H2O (6.87 kPa) with a solution at 37 °C, pH 7.4, constantly oxygenated (O2/CO2, 19:1) using the MyoHEART Langendorff System-900MH (Danish Myo Technology, Hinnerup, Denmark), which monitored the ECG. After 20 min stabilization period, acute myocardial ischemia was induced locally by installing a clamp on the left coronary artery (ischemic period). After 15 min, the clamp was removed, and ECG changes were monitored for 30 min (reperfusion period). The tested compound was added to the perfusion solution 15 min before coronary artery clamping. The point scale described by Bernauer was used to assess the antiarrhythmic activity in this arrhythmia model. The occurrence of a specific type of heart rhythm disturbance during the reperfusion period was scored according to the following scale: • occurrence of less than 10 extrasystoles—1 point; • occurrence of more than 10 extrasystoles—2 points; • presence of ventricular tachycardia—3 points; • presence of fibrillation—4 points.

α1 receptors = molecular target: α1 receptors; design: method as in PMID 25813897; details: cited from earlier work
α2 receptors = molecular target: α2 receptors; design: method as in PMID 25813897; details: cited from earlier work
α1A receptor = molecular target: α1A receptor; design: method as in PMID 25813897; details: antagonist; cited from earlier work
α1B receptor = molecular target: α1B receptor; design: method as in PMID 25813897; details: antagonist; cited from earlier work
[6] = system: blood pressure in normotensive rats; design: method as in PMID 25813897; details: doses 5, 1, and 0.5 mg/kg; cited from earlier work
[7] = 0 min (prior to administration)
[8] = dose 0.03 mg/kg iv 15 min before
[9] = dose 0.06 mg/kg iv 15 min before
[10] = dose 0.125 mg/kg iv 15 min before
[11] = dose 0.25 mg/kg iv 15 min before
[12] = dose 0.5 mg/kg iv 15 min before
[13] = calcium chloride 140 mg/kg iv, dose 5 mg/kg iv 15 min before, % occurrence
[14] = aconitine 20 μg/kg iv, dose 5 mg/kg iv 15 min before, % occurrence
[15] = reperfusion, concentration 10^−10 M, % occurrence

T1 sequence (P18090 whole entry): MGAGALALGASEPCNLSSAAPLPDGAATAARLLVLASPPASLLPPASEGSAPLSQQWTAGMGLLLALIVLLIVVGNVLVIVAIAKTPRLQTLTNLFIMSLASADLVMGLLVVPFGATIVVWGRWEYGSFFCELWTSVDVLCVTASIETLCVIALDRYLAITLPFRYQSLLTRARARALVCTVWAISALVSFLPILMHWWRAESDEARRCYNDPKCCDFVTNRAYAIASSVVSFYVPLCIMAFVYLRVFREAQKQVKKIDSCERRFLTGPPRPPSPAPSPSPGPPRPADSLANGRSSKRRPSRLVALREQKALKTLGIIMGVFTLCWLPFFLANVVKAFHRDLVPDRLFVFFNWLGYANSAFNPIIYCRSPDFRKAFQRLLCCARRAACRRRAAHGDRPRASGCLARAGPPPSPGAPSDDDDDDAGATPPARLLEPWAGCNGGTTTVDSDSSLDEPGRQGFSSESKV

## Cl.O=C1CCCN1CCCCN1CCN(c2ccccc2Cl)CC1 [S-75, 1-(4-(4-(2-chlorophenyl)piperazin-1-yl)butyl)pyrrolidin-2-one hydrochloride]
β1-adrenergic receptors
  β1 (pKi [nM]): did not bind
Potassium hERG channel; HEK-293 cells, [3H]-dofetilide
  IC50: 29.3 µM
Potassium hERG channel; vs terfenadine
  affinity toward potassium channel hERG, times lower than terfenadine: 1172 times
[1]; rat cortex tissue, [3H]-D888
  IC50: 0.757 µM
[1]; vs reference D-600
  affinity for L-type calcium channels, times lower than D-600: 20 times
Normal ECG in rats
  influence on QRS: no influence
  influence on QT: no influence
  influence on QTc: no influence; also recorded: did not prolong
Normal ECG in rats; [7]
  PQ: 46.44 ± 1.352
  QRS: 33.78 ± 1.384
  QT: 81.57 ± 1.356
  Rate (heart rate): 310.8 ± 17.07
  QTc: 182.9 ± 4.805
Normal ECG in rats; 5 min
  PQ: 47.00 ± 1.537
  QRS: 35.56 ± 1.701
  QT: 81.53 ± 1.812
  Rate (heart rate): 307.9 ± 18.93
  QTc: 192.3 ± 6.176
Normal ECG in rats; 10 min
  PQ: 49.78 ± 1.042
  QRS: 33.89 ± 1.628
  QT: 82.47 ± 2.186
  Rate (heart rate): 287.8 ± 22.94
  QTc: 189.3 ± 9.543
Normal ECG in rats; 15 min
  PQ: 52.11 ± 2.061
  QRS: 37.22 ± 1.637
  QT: 83.90 ± 1.730
  Rate (heart rate): 284.0 ± 23.50
  QTc: 190.9 ± 11.46
Normal ECG in rats; after 10 min
  decrease of the heart rate: 7.4%
Normal ECG in rats; after 15 min
  decrease of the heart rate: 8.6%
  prolongation of the PQ interval: 12.2%
Isolated rat heart; 10^−8 mol/L
  prolongation of the PQ interval: 15.1%
  prolongation of the RR interval: 10.5%
Isolated rat heart; 10^−10–10^−8 mol/L
  effect on QRS complex: not affecting; also recorded: did not affect
  effect on QTc interval: not affecting; also recorded: did not affect
[2]; Rattus norvegicus, prophylactic, iv 15 min before adrenaline 20 μg/kg, Litchfield and Wilcoxon, limits in brackets, read-out: ED50 (a dose producing a 50% inhibition of ventricular contractions)
  ED50: 0.05 mg/kg
[2]; [8]
  Blocks (%): 100%
  Bradycardia (%): 100%
  Extrasystoles (%): 100%
  Mortality (%): 33.3%
[2]; [9]
  Blocks (%): 50%
  Bradycardia (%): 100%
  Extrasystoles (%): 83.3%
  Mortality (%): 0%
[2]; [10]
  Blocks (%): 33.3%
  Bradycardia (%): 33.3%
  Extrasystoles (%): 66.7%
  Mortality (%): 50%
[2]; [11]
  Blocks (%): 50%
  Bradycardia (%): 16.7%
  Extrasystoles (%): 66.7%
  Mortality (%): 0%
[2]; [12]
  Blocks (%): 33.3%
  Bradycardia (%): 0%
  Extrasystoles (%): 16.7%
  Mortality (%): 0%
[3]; [13]
  Blocks (%): 100%
  Bradycardia (%): 100%
  Extrasystoles (%): 100%
  Fibrillations (%): 66.7%
  Mortality (%): 83.3%
[3]; prophylactic, rats
  activity in calcium chloride-induced arrhythmia: no activity
[4]; [14]
  Blocks (%): 100%
  Bradycardia (%): 100%
  Extrasystoles (%): 100%
  Fibrillations (%): 100%
  Mortality (%): 100%
[4]; prophylactic, rats
  activity in aconitine-induced arrhythmia: no activity
[5]
  activity in the post-reperfusion model of arrhythmia: did not show the activity
[5]; [15]
  Extrasystoles (%): 100%
  Fibrillations (%): 100%
  Tachycardia (%): 100%
α1 receptors
  pKi α1 receptors: 7.3
α2 receptors
  pKi α2 receptors: 6.01
α1A receptor
  EC50: 138 ± 21.9 nM
α1B receptor
  EC50: 2.53 ± 0.5 nM
[6]
  effect on blood pressure: significantly decreased the blood pressure

— publication PMC8625052, “The Antiarrhythmic Activity of Novel Pyrrolidin-2-one Derivative S-75 in Adrenaline-Induced Arrhythmia” (Pharmaceuticals, 2021)
